According to paper PMC8765048 (JCI Insight, 2022):
Read-outs that look alike come from different tables or passages of the source.

Columns and labels:
human cancer patients = settings: 40 human cancer patients, cited from earlier work
Salmonella typhimurium = assay: AMES mutagenicity testing (Salmonella typhimurium reverse mutation assay); format: cell-based
Procedure: The standard AMES (Salmonella typhimurium reverse mutation assay, ref. [43]) was performed by Cyprotex to evaluate the mutagenic potentials of sangivamycin. Approximately 10 million bacteria were exposed in triplicate to sangivamycin (6 concentrations, 1 mg/mL high test concentration), a negative control (vehicle), and a positive control for 90 minutes in medium containing a low concentration of histidine (sufficient for about 2 doublings). The cultures were then diluted into indicator medium lacking histidine and dispensed into 48 wells of 384-well plates (microplate format). Plates were incubated for 48 hours at 37°C. In the microsuspension assay, cells that undergo a mutagenic reversion grow, resulting in a color change that is scored as positive wells. Wells with bacterial growth were counted and compared with those with vehicle control. A dose-dependent increase in the number of colonies of at least 2-fold over baseline (mean + SD of the vehicle control) indicated a positive response.

multiple cell types = assay: CellTiter-Glo cell viability assay, average of 8 cell types; format: cell-based; settings: average ± SEM, n = 8 cell types
[1] = as above; format: cell-based; settings: human (7 cell types) and grivet (Vero E6), average ± SEM, n = 8 cell types
[2] = CellTiter-Glo cell viability assay; format: cell-based; settings: human, HEK293T cells
[3] = CellTiter-Glo cell viability assay; format: cell-based; settings: Primary human hepatocytes
[4] = test system: HepG2 (human hepatocarcinoma); assay: CellTox Green Cytotoxicity Assay; settings: ratio > 1 cytostatic, ≤ 1 cytotoxic
SARS-CoV-2 WA1 [5] = assay: microbe, parasite or virus in culture; format: cell-based
[6] = CellTiter-Glo cell viability assay; format: cell-based; settings: human, Huh-7 cells; Huh-7, 72 h
[7] = test system: SARS-CoV-2 B.1.617.2 (Delta); assay: microbe, parasite or virus in culture; format: cell-based
A549 cells = assay: Phospholipidosis imaging (NBD-PE fluorescence); settings: 24 h, sangivamycin up to 5 μM, melperone 10 μM, amiodarone positive control
KCNH2 (hERG) = molecular target: T1, KCNH2 (hERG) (Homo sapiens, UniProt Q12809); assay: Potassium channel inhibition testing (QPatch HTX electrophysiology); format: cell-based
T1 construct: expressed in transfected cells; host or cells: HEK293T
Text: The KCNH2 (hERG) functions as the α subunit of a cardiac potassium channel. Its inhibition by drugs has been implicated in fatal ventricular tachyarrhythmia ([31]). As a predictor of cardiotoxicity and genotoxicity, we therefore evaluated KCNH2 (hERG) inhibition and genotoxicity in the AMES mutagenicity assay.
Ruling out inhibition of KCNH2 (hERG) by a novel compound is a mandatory step in establishing drug safety. The effect of sangivamycin on KCNH2-derived cardiac potassium channels was assessed using HEK293T cells and the QPatch HTX electrophysiology platform (Evotech), following the manufacturer’s instructions. Sangivamycin was tested at 6 concentrations (cumulative concentration response, high test concentration of 10 μM). The percentage change in potassium channel tail current was used to calculate channel inhibition.

SARS-CoV-2 WA1 [8] = assay: microbe, parasite or virus in culture; format: cell-based; settings: Severe acute respiratory syndrome coronavirus 2, Caco-2, 96 h
[9] = 24-hour plasma pharmacokinetics in CD-1 laboratory mice; format: in vivo, mouse; settings: for apparent volume of distribution / total clearance / area under the curve to the last time point / Cmax: CD-1 mice, i.p. 60 mg/kg; for area under the curve to the last time point: 24 h; for Cmax: mouse, plasma, ip
Procedure: We next evaluated the 24-hour pharmacokinetics (PK) of sangivamycin in CD-1 laboratory mouse plasma. Sangivamycin’s plasma concentrations increased following i.p. injection of 60 mg/kg to a peak at 2 hours, then decreased over 6 or 8 hours, and remained virtually unchanged up to 24 hours after dosing. […] Graphing plasma concentration versus time produced an area under the curve to the last time point with values of 632 ± 66.6 h•ng/mL for males and 833 ± 53.9 h•ng/mL for females. […] Our data corroborate historical PK studies in mice with ^3H-labeled sangivamycin performed at the NCI in 1974 ([20]). In these studies, free nucleoside and mono-, di-, and triphosphate forms of sangivamycin were detected in blood, urine, and multiple tissues (e.g., heart, liver, brain, spleen, and kidneys) following i.p. injection of 8 mg/kg. The studies established that sangivamycin was phosphorylated after transportation into cells. In liver, heart, and brain, the predominant form of sangivamycin was sangivamycin 5′-monophosphate (SMP). […] Therefore, we determined the level of SMP in blood in our PK study using a published liquid chromatography–tandem mass spectrometry (LC-MS/MS) method with a lower limit of quantification of 1 ng/mL ([33]). Using this method, we detected SMP in the plasma of dosed mice but not control mice (Supplemental Figure 9B). The apparent levels of SMP increased in blood during the 24 hours of this study. There also was possible presence of a diphosphate metabolite of sangivamycin, but it was detected only in the plasma samples taken 24 hours after dosing.

[10] = test system: SARS-CoV-2 B.1.1.7 (Alpha); assay: microbe, parasite or virus in culture; format: cell-based
[11] = test system: SARS-CoV-2 B.1.427 (Epsilon); assay: microbe, parasite or virus in culture; format: cell-based
[12] = test system: SARS-CoV-2 B.1.617.2 (Delta); assay: microbe, parasite or virus in culture; format: cell-based; remark: listed apart in the source
[13] = test system: Huh-7 (human hepatocarcinoma); assay: CellTox Green Cytotoxicity Assay; settings: ratio > 1 cytostatic, ≤ 1 cytotoxic
[14] = Severe acute respiratory syndrome coronavirus 2, Calu-3, 72 h
[15] = Severe acute respiratory syndrome coronavirus 2, Calu-3, 24 h
[16] = Severe acute respiratory syndrome coronavirus 2, Vero C1008, 24 h
[17] = Severe acute respiratory syndrome coronavirus 2, VeroE6/TMPRSS2, 18 h

T1 sequence (Q12809 whole entry): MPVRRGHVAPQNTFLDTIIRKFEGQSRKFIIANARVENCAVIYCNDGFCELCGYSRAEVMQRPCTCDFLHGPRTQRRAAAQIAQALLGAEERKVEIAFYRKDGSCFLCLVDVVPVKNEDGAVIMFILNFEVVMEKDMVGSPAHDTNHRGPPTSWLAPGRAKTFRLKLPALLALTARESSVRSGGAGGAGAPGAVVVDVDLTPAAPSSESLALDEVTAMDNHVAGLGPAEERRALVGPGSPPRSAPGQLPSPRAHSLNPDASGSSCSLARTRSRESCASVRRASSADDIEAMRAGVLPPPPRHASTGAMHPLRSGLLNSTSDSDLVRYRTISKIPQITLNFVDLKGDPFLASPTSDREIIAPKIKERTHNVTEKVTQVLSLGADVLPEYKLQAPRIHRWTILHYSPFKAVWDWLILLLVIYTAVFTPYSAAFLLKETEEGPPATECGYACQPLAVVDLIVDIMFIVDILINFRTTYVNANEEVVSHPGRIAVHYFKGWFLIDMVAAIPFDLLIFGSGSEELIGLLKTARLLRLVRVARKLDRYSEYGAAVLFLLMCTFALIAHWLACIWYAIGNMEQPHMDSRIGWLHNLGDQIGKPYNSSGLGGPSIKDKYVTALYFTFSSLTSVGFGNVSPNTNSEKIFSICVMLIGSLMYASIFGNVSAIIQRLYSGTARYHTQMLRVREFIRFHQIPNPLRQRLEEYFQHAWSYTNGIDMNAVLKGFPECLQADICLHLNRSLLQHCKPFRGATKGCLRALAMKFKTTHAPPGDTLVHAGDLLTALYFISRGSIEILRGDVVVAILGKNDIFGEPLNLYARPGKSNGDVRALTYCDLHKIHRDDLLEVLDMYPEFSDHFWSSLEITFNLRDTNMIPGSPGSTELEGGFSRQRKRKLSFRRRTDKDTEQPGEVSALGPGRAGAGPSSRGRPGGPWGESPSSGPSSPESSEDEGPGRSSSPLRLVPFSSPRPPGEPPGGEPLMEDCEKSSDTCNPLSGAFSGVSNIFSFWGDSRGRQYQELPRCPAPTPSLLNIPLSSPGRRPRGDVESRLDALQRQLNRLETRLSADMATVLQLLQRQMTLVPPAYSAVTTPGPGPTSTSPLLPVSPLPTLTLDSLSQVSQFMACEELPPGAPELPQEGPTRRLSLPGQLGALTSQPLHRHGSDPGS

Which MTD (human cancer patients; 0.1–2.83 mg/kg total dose) does the source give for `NC(=O)c1cn([C@@H]2O[C@H](CO)[C@@H](O)[C@H]2O)c2ncnc(N)c12` [Sangivamycin, sangivamycin] here?
The MTD was “not reached”.

What about the tolerability (human cancer patients; daily, thrice weekly, or weekly dosing, 0.1–2.83 mg/kg total dose) of the same compound?
Its tolerability is “well tolerated”.

What about the “activity against the disease (cancer)” value (human cancer patients) of the same compound?
Its value is “inactive”.

What about the AMES genotoxicity test (Salmonella typhimurium; 1 mg/mL [3.2 mM] high test concentration) of the same compound?
The AMES genotoxicity test was >1 mg/mL.

And the bacterial mutagenicity (Salmonella typhimurium; up to 3.2 mM)?
The bacterial mutagenicity was “no evidence of enhanced bacterial mutagenicity”.

And the CC50 (multiple cell types)?
The CC50 was 607 ± 182 nM.

And the CC50 [1]?
The CC50 was 617 ± 181 nM.

What about the CC50 at 72 h [2] of the same compound?
The CC50 at 72 h was 885 nM.

What about the CC50 at 72 h [3] of the same compound?
The CC50 at 72 h was 439 nM.

And the “Ratio CellTox Green/CellTiter-Glo” value [4]?
The value was >2.82.

What about the IC50 (SARS-CoV-2 WA1 [5]; [14]) of the same compound?
The IC50 was 61 ± 8 nM.

What about the IC90 (SARS-CoV-2 WA1 [5]; [14]) of the same compound?
The IC90 was 190 ± 23 nM.

What about the “SI (selectivity index, CC50/IC50)” value (SARS-CoV-2 WA1 [5]; WA1, Calu-3 cells) of the same compound?
The value was 5.3.

What about the CC50 at 72 h [6] of the same compound?
The CC50 at 72 h was 487 nM.

What about the “SI (selectivity index, CC50/IC50)” value ([7]; B.1.617.2 (Delta), Calu-3 cells) of the same compound?
The value was >7.6.

And the IC50 [7, 15]?
The IC50 was 79 nM.

And the IC90 [7, 15]?
The IC90 was 290 nM.

And the “NBD-PE fluorescence (phospholipidosis)” value (A549 cells)?
Its value is “no significant NBD-PE fluorescence above the DMSO control baseline”.

And the IC50 (KCNH2 (hERG))?
The IC50 was > 10000 nM.

What about the “effect on the KCNH2 (hERG)” value (KCNH2 (hERG); 10 μM) of the same compound?
Its value is “had no effect”.

What about the IC50 (SARS-CoV-2 WA1 [8]) of the same compound?
Its IC50 is 14 ± 2 nM.

What about the IC90 (SARS-CoV-2 WA1 [8]) of the same compound?
Its IC90 is 63 ± 17 nM.

And the “apparent volume of distribution” value ([9]; females)?
Its value is 167,000 mL/kg.

And the total clearance ([9]; females)?
The total clearance was 68,500 mL/h/kg.

And the “area under the curve to the last time point” value ([9]; females)?
The value was 833 ± 53.9 ng·h/mL.

And the “apparent volume of distribution” value ([9]; males)?
Its value is 369,000 mL/kg.

And the total clearance ([9]; males)?
Its total clearance is 85,400 mL/h/kg.

And the “area under the curve to the last time point” value ([9]; males)?
Its value is 632 ± 66.6 ng·h/mL.

What about the Cmax ([9]; female, females (285 ng/mL), read-out: Cmax, molar equivalent) of the same compound?
Its Cmax is 922 nM.

And the Cmax ([9]; female, females, read-out: Cmax of the plasma)?
The Cmax was 285 ± 35.9 ng/mL.

And the Cmax ([9]; male, males (97.3 ng/mL), read-out: Cmax, molar equivalent)?
The Cmax was 314 nM.

And the Cmax ([9]; male, males, read-out: Cmax of the plasma)?
The Cmax was 97.3 ± 31 ng/mL.

And the “Cmax relative to the average IC90 in the 3 cell lines tested” value ([9]; mouse plasma Cmax 314 nM and 922 nM)?
Its value is 3- to 9 fold.

What about the “SI (selectivity index, CC50/IC50)” value ([10]; B.1.1.7 (Alpha), Vero E6 cells) of the same compound?
The value was >39.0.

What about the IC50 [10, 16] of the same compound?
Its IC50 is 15.4 nM.

What about the IC90 [10, 16] of the same compound?
Its IC90 is 164 nM.

What about the “SI (selectivity index, CC50/IC50)” value ([11]; B.1.427 (Epsilon), Calu-3 cells) of the same compound?
The value was >7.3.

And the IC50 [11, 15]?
The IC50 was 82.2 nM.

And the IC90 [11, 15]?
The IC90 was 341 nM.

What about the IC50 [12] of the same compound?
Its IC50 is 80.4 nM.

And the “SI (selectivity index, CC50/IC50)” value ([12]; B.1.617.2 (Delta), Vero E6/TMPRSS2 cells)?
Its value is >7.5.

And the IC50 [12, 17]?
Its IC50 is 80 nM.

What about the IC90 [12, 17] of the same compound?
Its IC90 is 263 nM.

And the “Ratio CellTox Green/CellTiter-Glo” value [13]?
Its value is >10.3.
